Data reported in US12596108B2, “Automated lipid exchange-mass spectrometry systems and methods” (ARIZONA BOARD OF REGENTS ON BEHALF OF THE UNIVERSITY OF …, priority 2020, dated 2026).

Biological target: T1, AmtB, an E. coli ammonia channel (Escherichia coli, UniProt P69681)
T1 construct: HIS (polyhistidine) (N, cleaved yes); MBP (N, cleaved yes); TEV site (N, cleaved yes); made in house; host or cells: E. coli
Experiment: Lipid exchange-mass spectrometry (LX-MS) between AmtB nanodiscs and tagged empty nanodiscs
Type: binding
Conditions: for optimal ratio for AmtB POPC/POPG (isolipid point) / lipid preference of AmtB (in words): LX-MS; for lipid preference of AmtB (in words) / isolipid point (mole fraction where Xp−Xt=0): POPC/POPG nanodiscs; for isolipid point (mole fraction where Xp−Xt=0): exchange at room temperature (21-23° C.) over 2.8 days, sigmoidal fit of Xt versus Xp−Xt
Protocol: AmtB, an E. coli ammonia channel, was incorporated into untagged nanodiscs with 50/50 1-palmitoyl-2-oleoyl-sn-glycero-3-phosphocholine (POPC)/1-palmitoyl-2-oleoyl-sn-glycero-3-phospho-(1′-racglycerol) (POPG). Polyhistidine-tagged empty nanodiscs without AmtB were also prepared at various POPC/POPG ratios ranging from 0 to 100% POPC. In one embodiment, the ratios were 0%, 20%, 40%, 50%, 60%, 80%, and 100% POPC Tagged empty nanodiscs were mixed with untagged AmtB nanodiscs, and the mixture was allowed to exchange at room temperature (21-23° C.) over 2.8 days. After exchange, internal standards containing PC and PG lipids with different tail lengths were added, and the total lipid mole fraction of POPC, Xt, was measured (tagged and untagged) by direct infusion MS. Then, the tagged empty nanodiscs were removed by passing the mixture over immobilized metal affinity chromatography (IMAC) beads, and the untagged AmtB nanodiscs were measured alone to determine the lipid mole fraction in the membrane protein nanodiscs, Xp. Preliminary experiments confirmed that the exchange was within experimental error (typically 2-4% absolute mole fraction) by 2.8 days, but a full examination of kinetics was not performed due to limited amounts of sample.
At high total POPC, AmtB shifted the equilibrium to acquire more POPG in the AmtB nanodiscs. Conversely, at low POPC levels, AmtB shifted the equilibrium to enrich the AmtB nanodiscs in POPC.
After establishing that AmtB remodels the local membrane environment, Xt versus Xp−Xt was fit to a sigmoidal curve and the x-intercept where Xp−Xt=0 was determined. At this mole fraction, which is termed the isolipid point, the lipid composition of the membrane protein nanodiscs is the same as the empty nanodiscs. The composition of the annular lipids matches the bulk lipid bilayer at the isolipid point.
The 50% POPC AmtB nanodiscs were mixed with empty nanodiscs assembled with the polyhistidine tagged MSP1E3D1 in POPC/(POPC+POPG) mole fractions of 0, 20, 40, 60, 80, or 100% at a 1:1 molar ratio and a final concentration of 2.3 μM AmtB nanodiscs. To extend the titration to a lower total POPC mole fraction (Xt), the AmtB nanodiscs were mixed with 0% POPC empty nanodiscs at a 1:2.6 molar ratio while keeping the AmtB nanodiscs at 2.3 μM. The mixtures were incubated at room temperature (21-23° C.) for 2.8 days to allow the lipid exchange to reach equilibrium. […] Control experiments were also performed using 50% POPC untagged empty nanodiscs mixed with empty nanodiscs assembled with the polyhistidine-tagged MSP1E3D1 in POPC/(POPC+POPG) mole fractions of 0, 20, 40, 60, 80, or 100% at a 1:1 molar ratio and a final concentration of 2.3 μM MSP as well as at a 1:2.6 molar ratio with 0% nanodiscs.
After exchanging, tagged empty nanodiscs and untagged (either empty or AmtB) nanodiscs were separated by IMAC using a Ni-NTA His SpinTrap (GE Healthcare). Because small exchange volumes of roughly 16 μL were used, around ⅓ of the 100 μL column volume was removed for a final column volume around 66 μL. The SpinTrap was prepared by three washes of 450 μL loading buffer (20 mM imidazole, 0.2 M ammonium acetate, pH 7.6) to equilibrate the column. Prior to addition to the beads, the imidazole concentration of the exchange mixture was adjusted to 20 mM by adding a 1 M imidazole solution (pH 7.6 adjusted with acetic acid) to limit the non-specific binding of the untagged nanodiscs. Then, the exchange reaction mixture was added to the IMAC beads and allowed to incubate for 1-2 minutes at 4° C. The flow-through was removed by centrifugation at 100 g for 45 seconds, and extra loading buffer of 20 μL was added to the column and washed under the same centrifugation procedures. […] Thus, the first wash was collected for MS analysis to maximize the lipid concentration. Around 20 μL was typically recovered. After separation, the His SpinTrap was cleaned with three washes of 450 μL elution buffer (400 mM imidazole, 0.2 M ammonium acetate, pH 7.8). […]

T1 sequence (P69681 23-428): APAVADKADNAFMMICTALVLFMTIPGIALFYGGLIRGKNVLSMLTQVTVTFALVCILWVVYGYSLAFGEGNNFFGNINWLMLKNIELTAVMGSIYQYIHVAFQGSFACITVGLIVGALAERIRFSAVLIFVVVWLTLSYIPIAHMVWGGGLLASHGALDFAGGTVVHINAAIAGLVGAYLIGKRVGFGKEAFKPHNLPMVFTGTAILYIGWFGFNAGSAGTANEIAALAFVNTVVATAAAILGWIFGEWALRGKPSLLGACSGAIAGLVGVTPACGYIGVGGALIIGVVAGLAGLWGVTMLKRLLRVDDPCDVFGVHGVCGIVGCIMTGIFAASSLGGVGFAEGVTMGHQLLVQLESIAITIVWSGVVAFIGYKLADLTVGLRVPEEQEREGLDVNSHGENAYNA

With CCCCCCCC/C=C\CCCCCCCC(=O)O[C@H](COC(=O)CCCCCCCCCCCCCCC)COP(=O)(O)OCC(O)CO (mixture of isomers) [POPG, 1-palmitoyl-2-oleoyl-sn-glycero-3-phospho-(1′-racglycerol)] the “optimal ratio for AmtB POPC/POPG (isolipid point)” value was 76, the “lipid preference of AmtB (in words)” value was “clear preference for POPG” and the “isolipid point (mole fraction where Xp−Xt=0)” value was 76±2%.
In the case of CCCCCCCC/C=C\CCCCCCCC(=O)O[C@H](COC(=O)CCCCCCCCCCCCCCC)COP(=O)([O-])OCC[N+](C)(C)C [POPC, 1-palmitoyl-2-oleoyl-sn-glycero-3-phosphocholine], the “optimal ratio for AmtB POPC/POPG (isolipid point)” value is reported as 24, the “lipid preference of AmtB (in words)” value is reported as “some affinity for POPC” and the “isolipid point (mole fraction where Xp−Xt=0)” value is reported as 24±2%.
